Experimental data from ChEMBL document CHEMBL1152356, “Solving the confusion of gnaphaliin structure: gnaphaliin A and gnaphaliin B identified as active principles of Gnaphalium liebmannii with tracheal smooth muscle relaxant properties” (J Nat Prod, 2009).

Experiment: Vasorelaxant activity against carbachol chloride-induced contraction in guinea pig trachea treated 30 mins after carbachol chloride challenge
Assay type: functional, tissue-based, Cavia porcellus

| Compound | EC50 (read-out: EC50) [µM] | EC50 [µg/mL] |
| --- | --- | --- |
| Cn1c(=O)c2[nH]cnc2n(C)c1=O [AMINOPHYLLINE] | 534 |  |
| COc1cc(O)c2c(=O)c(O)c(-c3ccccc3)oc2c1OC [GNAPHALIIN B] |  | 63.05 |
| COc1c(-c2ccccc2)oc2c(OC)c(O)cc(O)c2c1=O [GNAPHALIIN] |  | 43.1 |
